# pKi: −log10 of the molar value.
# Target: T1, Beta-1,4-galactosyltransferase 1 (Bos taurus, UniProt P08037)
# T1 sequence (P08037 whole entry): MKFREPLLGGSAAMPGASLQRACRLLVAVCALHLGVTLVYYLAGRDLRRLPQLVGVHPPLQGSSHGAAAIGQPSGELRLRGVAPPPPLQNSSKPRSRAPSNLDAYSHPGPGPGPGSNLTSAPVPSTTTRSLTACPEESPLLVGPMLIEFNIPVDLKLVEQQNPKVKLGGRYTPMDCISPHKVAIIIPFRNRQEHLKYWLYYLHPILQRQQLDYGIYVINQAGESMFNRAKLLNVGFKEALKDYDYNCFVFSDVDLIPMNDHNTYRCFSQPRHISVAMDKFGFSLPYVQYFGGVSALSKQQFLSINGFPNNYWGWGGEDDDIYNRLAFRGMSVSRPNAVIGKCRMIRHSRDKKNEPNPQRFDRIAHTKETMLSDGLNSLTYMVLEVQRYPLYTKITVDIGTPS
# Assay: Inhibition constant of compound was tested against Beta-galactosyltransferase from bovine milk
row,pKi,SMILES
1,3.78,O=c1ccn(C2O[C@H](COP(=O)(O)OP(=O)(O)C3OC(O)C(O)C(O)C3O)[C@@H](O)[C@H]2O)c(=O)[nH]1 (stereo not given in full)
2,4.01,O=c1ccn(C2O[C@H](COP(=O)(O)CP(=O)(O)OC3OC(O)C(O)C(O)C3O)[C@@H](O)[C@H]2O)c(=O)[nH]1 (stereo not given in full)

# The remaining lines, values behind:
row,SMILES,pKi
1,O=P(O)(O)CC1=CC(O)C(O)C(CO)O1 (stereo not given),2.84
2,O=c1ccn(C2O[C@H](COP(=O)(O)OP(=O)(O)CC3=CC(O)C(O)C(CO)O3)[C@@H](O)[C@H]2O)c(=O)[nH]1 (stereo not given in full),4.21
3,O=c1ccn([C@@H]2O[C@H](COP(=O)(O)OP(=O)(O)OP(=O)(O)O)[C@@H](O)[C@H]2O)c(=O)[nH]1 [URIDINE TRIPHOSPHATE],3.89

# — ChEMBL document CHEMBL1150445, “A new galactosyl transferase inhibitor” (Bioorg Med Chem Lett, 1993)
